In patent EP4635500A1, “THERAPEUTIC AGENT FOR BACTERIAL INFECTION” (Sumitomo Pharma Co., Ltd., priority 2022, dated 2024):
Read-outs that look alike come from different tables or passages of the source.

Assays:
[1] = tested on: Enterobacterales; experiment: MIC, broth microdilution, CDC/FDA Antibiotic Resistance Isolate Bank (Example 7, Tables 8, 11, 12); type: cell-based
[2] = tested on: A. baumannii; experiment: MIC, broth microdilution, CDC/FDA Antibiotic Resistance Isolate Bank (Example 7, Tables 9, 13, 14); type: cell-based, Acinetobacter baumannii; conditions: for MIC: read-out: MIC

C[C@@H](O)[C@H]1C(=O)N2C(C(=O)O)=C(S[C@@H]3CN[C@H](C(=O)N(C)C)C3)[C@H](C)[C@H]12 [MEPM, meropenem]
0.12 µg/mL: MIC ([1]; Klebsiella pneumoniae, KUB No. 5636, AR Bank# 139, NDM-1, read-out: MIC) | MIC ([1]; Klebsiella pneumoniae, KUB No. 5772, AR Bank# 376, no carbapenemase genes, read-out: MIC) | MIC ([1]; Proteus mirabilis, KUB No. 5556, AR Bank # 59, no carbapenemase gene, read-out: MIC) | MIC ([1]; Proteus mirabilis, KUB No. 5653, AR Bank# 156, KPC-2, read-out: MIC)
0.5 µg/mL: MIC ([1]; Klebsiella pneumoniae, KUB No. 5632, AR Bank# 135, VIM-1, read-out: MIC) | MIC ([1]; Serratia marcescens, KUB No. 5628, AR Bank # 131, SME-3, read-out: MIC)
64 µg/mL: MIC ([2]; Acinetobacter baumannii, A. baumannii KUB No. 5729, AR Bank #296, OXA-23, OXA-223) | MIC ([2]; Acinetobacter baumannii, A. baumannii KUB No. 5737, AR Bank #304, OXA-66, OXA-72)
32 µg/mL: MIC ([1]; Serratia marcescens, KUB No. 5619, AR Bank # 122, SME-3, read-out: MIC) | MIC ([1]; Serratia marcescens, KUB No. 5621, AR Bank # 124, SME-3, read-out: MIC) | MIC50 ([2]; 55 isolates of A. baumannii) | MIC ([2]; Acinetobacter baumannii, A. baumannii KUB No. 5575, AR Bank #78, OXA-71) | MIC ([2]; Acinetobacter baumannii, A. baumannii KUB No. 5706, AR Bank #273, OXA-23, OXA-66) | MIC ([2]; Acinetobacter baumannii, A. baumannii KUB No. 5708, AR Bank #275, OXA-23, OXA-66) | MIC ([2]; Acinetobacter baumannii, A. baumannii KUB No. 5711, AR Bank #278, OXA-23, OXA-66) | MIC ([2]; Acinetobacter baumannii, A. baumannii KUB No. 5712, AR Bank #279, OXA-23, OXA-66) | MIC ([2]; Acinetobacter baumannii, A. baumannii KUB No. 5715, AR Bank #282, OXA-23, OXA-66) | MIC ([2]; Acinetobacter baumannii, A. baumannii KUB No. 5716, AR Bank #283, OXA-23, OXA-66) | MIC ([2]; Acinetobacter baumannii, A. baumannii KUB No. 5723, AR Bank #90, OXA-23, OXA-66) | MIC ([2]; Acinetobacter baumannii, A. baumannii KUB No. 5724, AR Bank #291, OXA-23, OXA-66) | MIC ([2]; Acinetobacter baumannii, A. baumannii KUB No. 5727, AR Bank #294, OXA-23, OXA-65) | MIC ([2]; Acinetobacter baumannii, A. baumannii KUB No. 5728, AR Bank #295, OXA-23, OXA-66) | MIC ([2]; Acinetobacter baumannii, A. baumannii KUB No. 5732, AR Bank #299, OXA-23, OXA-203) | MIC ([2]; Acinetobacter baumannii, A. baumannii KUB No. 5735, AR Bank #302, OXA-23, OXA-82) | MIC ([2]; Acinetobacter baumannii, A. baumannii KUB No. 5742, AR Bank #309, OXA-23, OXA-82) | MIC ([2]; Acinetobacter baumannii, A. baumannii KUB No. 5743, AR Bank #310, OXA-23, OXA-82) | MIC ([2]; Acinetobacter baumannii, A. baumannii KUB No. 5744, AR Bank #311, OXA-23, OXA-82) | MIC50 ([2]; Acinetobacter baumannii, 55 strains of A. baumannii, read-out: MIC50)
> 32 µg/mL: MIC ([1]; Klebsiella pneumoniae, KUB No. 5635, AR Bank# 138, NDM-7, read-out: MIC) | MIC ([1]; Klebsiella pneumoniae, KUB No. 5640, AR Bank# 143, NDM-L, read-out: MIC) | MIC ([1]; Klebsiella pneumoniae, KUB No. 5650, AR Bank# 153, OXA-232, NDM-1, read-out: MIC) | MIC ([1]; Klebsiella pneumoniae, KUB No. 5797, AR Bank# 453, KPC-3, read-out: MIC) | MIC ([1]; Klebsiella pneumoniae, KUB No. 5812, AR Bank# 507, OXA-232, NDM-1, read-out: MIC)
16 µg/mL: MIC ([1]; Klebsiella pneumoniae, KUB No. 5622, AR Bank # 125, KPC-3, read-out: MIC) | MIC ([1]; Klebsiella pneumoniae, KUB No. 5810, AR Bank# 505, NDM-1, read-out: MIC) | MIC ([1]; Klebsiella pneumoniae, KUB No. 5811, AR Bank# 506, NDM-1, read-out: MIC) | MIC ([1]; Klebsiella pneumoniae, KUB No. 5828, AR Bank# 523, KPC-2 (row continued in Table 8-7), read-out: MIC) | MIC ([1]; Klebsiella pneumoniae, KUB No. 5829, AR Bank# 524, KPC-3, read-out: MIC) | MIC ([1]; Salmonella enterica) | MIC ([1]; Serratia marcescens, KUB No. 5588, AR Bank # 91, SME-3, read-out: MIC) | MIC ([1]; Serratia marcescens, KUB No. 5596, AR Bank # 99, SME-3, read-out: MIC) | MIC ([1]; Serratia marcescens, KUB No. 5618, AR Bank # 121, SME-3, read-out: MIC) | MIC ([2]; Acinetobacter baumannii, A. baumannii KUB No. 5721, AR Bank #288, OXA-23, OXA-66) | MIC ([2]; Acinetobacter baumannii, A. baumannii KUB No. 5730, AR Bank #297, OXA-23, OXA-66) | MIC ([2]; Acinetobacter baumannii, A. baumannii KUB No. 5731, AR Bank #298, OXA-66, OXA-237) | MIC ([2]; Acinetobacter baumannii, A. baumannii KUB No. 5736, AR Bank #303, OXA-23, OXA-66) | MIC ([2]; Acinetobacter baumannii, A. baumannii KUB No. 5741, AR Bank #308, OXA-71) | MIC ([2]; Acinetobacter baumannii, A. baumannii KUB No. 5746, AR Bank #313, OXA-23, OXA-69)
2 µg/mL: MIC ([1]; Kluyvera ascorbata) | MIC ([1]; Morganella morganii, KUB No. 5824, AR Bank# 519, no carbapenemase genes, read-out: MIC) | MIC ([1]; Proteus mirabilis, KUB No. 5656, AR Bank# 159, NDM-1, read-out: MIC) | MIC ([1]; Serratia marcescens, KUB No. 5620, AR Bank # 123, SME-3, read-out: MIC)
1 µg/mL: MIC ([1]; Klebsiella pneumoniae, KUB No. 5637, AR Bank# 140, OXA-181, read-out: MIC) | MIC ([1]; Klebsiella pneumoniae, KUB No. 5639, AR Bank# 142, OXA-181, read-out: MIC) | MIC ([1]; Klebsiella pneumoniae, KUB No. 5760, AR Bank# 364, no carbapenemase genes, read-out: MIC) | MIC ([1]; Morganella morganii, KUB No. 5630, AR Bank# 133, KPC-2, read-out: MIC) | MIC ([1]; Proteus mirabilis, KUB No. 5652, AR Bank# 155, KPC-6, read-out: MIC) | MIC ([1]; Proteus mirabilis, KUB No. 5773, AR Bank# 377, KPC-3, read-out: MIC)
8 µg/mL: MIC ([1]; Klebsiella pneumoniae, KUB No. 5642, AR Bank# 145, NDM-1, read-out: MIC) | MIC ([1]; Klebsiella pneumoniae, KUB No. 5643, AR Bank# 146, NDM-1, read-out: MIC) | MIC ([1]; Klebsiella pneumoniae, KUB No. 5645, AR Bank# 148, NDM-1, read-out: MIC) | MIC ([1]; Klebsiella pneumoniae, KUB No. 5655, AR Bank# 158, NDM-1, read-out: MIC) | MIC ([1]; Klebsiella pneumoniae, KUB No. 5657, AR Bank# 160, OXA-48, read-out: MIC) | MIC ([1]; Klebsiella pneumoniae, KUB No. 5757, AR Bank# 361, KPC-2, read-out: MIC) | MIC ([1]; Klebsiella pneumoniae, KUB No. 5758, AR Bank# 362, KPC-2, read-out: MIC) | MIC ([1]; Klebsiella pneumoniae, KUB No. 5827, AR Bank# 522, KPC-2, read-out: MIC) | MIC ([1]; Klebsiella pneumoniae, KUB No. 5830, AR Bank# 525, KPC-11, read-out: MIC) | MIC ([1]; Klebsiella pneumonice, KUB No. 5649, AR Bank# 152, NDM-1, read-out: MIC) | MIC ([1]; Providencia rettgeri) | MIC ([1]; Serratia marcescens, KUB No. 5627, AR Bank # 130, SME-3, read-out: MIC) | MIC ([1]; Serratia marcescens, KUB No. 5822, AR Bank# 517, KPC-3, read-out: MIC) | MIC ([2]; Acinetobacter baumannii, A. baumannii KUB No. 5567, AR Bank #70, OXA-58, OXA-100) | MIC ([2]; Acinetobacter baumannii, A. baumannii KUB No. 5714, AR Bank #281, OXA-82) | MIC ([2]; Acinetobacter baumannii, A. baumannii KUB No. 5740, AR Bank #307, OXA-66, OXA-237)
4 µg/mL: MIC ([1]; Klebsiella pneumoniae, KUB No. 5623, AR Bank # 126, KPC-2, read-out: MIC) | MIC ([1]; Klebsiella pneumoniae, KUB No. 5626, AR Bank # 129, KPC-3, read-out: MIC) | MIC ([1]; Klebsiella pneumoniae, KUB No. 5759, AR Bank# 363, KPC-2, read-out: MIC) | MIC ([1]; Klebsiella pneumoniae, KUB No. 5809, AR Bank# 504, OXA-48, read-out: MIC) | MIC ([2]; Acinetobacter baumannii, A. baumannii KUB No. 5709, AR Bank #276, no carbapenemase genes (-)) | MIC ([2]; Acinetobacter baumannii, A. baumannii KUB No. 5745, AR Bank #312, OXA-69)
≤ 0.06 µg/mL: MIC ([1]; Proteus mirabilis, KUB No. 5775, AR Bank# 379, no carbapenemase genes, read-out: MIC) | MIC ([1]; Serratia marcescens, KUB No. 5825, AR Bank# 520, no carbapenemase genes, read-out: MIC) | MIC ([1]; Serratia marcescens, KUB No. 5826, AR Bank# 521, no carbapenemase genes, read-out: MIC)
